Source: patent US20240252677A1, “ONE-COMPONENT DELIVERY SYSTEM FOR NUCLEIC ACIDS” (The Trustees of the University of Pennsylvania, priority 2021, published 2024)

How the values were obtained:
[1] = system: HEK293T cells; assay: In vitro Luc-mRNA transfection, luciferase luminescence expression in HEK293T cells; type: cell-based, human; set-up: unit not given here; settings: Table 16; HEK 293T cells, 125 ng/well, n=3
Outline: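 HEK293T cells were transfected with nucleoside-modified firefly luciferase mRNA at 125 ng/well delivered in the test particles. TransIT and MC3-based LNPs at equal mRNA dose served as comparators. After 24 h (18-20 h in some runs) at 37° C the cells were lysed, and luciferase luminescence was read on a luminometer, in triplicate.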

[2] = system: BALB/c mice; assay: In vivo mRNA delivery in mice with DNPs, whole-body bioluminescence imaging (IVIS)
[3] = system: lung; assay: In vivo mRNA delivery, IVIS imaging of organs: lung; set-up: species or system mice; key to Organs with luminescence: lung: strong: Strong meant the luminescence intensity in that organ was relatively high, compared to other organs; weak: Weak meant the luminescence intensity in that organ was relatively low, compared to other organs; settings: Table 17; mice, IVIS, 4-6 h after injection; intensity relative to other organs
[4] = Stability of DNPs by DLS after storage at 5° C.; type: physicochemical; set-up: key: Excellent: the original sizes and distribution types remained almost the same after storage; Good: the original sizes and distribution types changed slightly (size difference was less than 100 nm) or the original size remained almost the same but the DLS curve showed more size distributions after storage
Description: The stability of the DNPs as assayed by DLS. All the samples are prepared in acetate buffer. The stabilities of the constructs were ranked: Excellent (in bold)—the original sizes and distribution remains almost the same after storage; Good—the original relatively big sizes became smaller or broad size distribution became narrower; Not stable—the original relatively big sizes or broad size distribution remained almost the similar level, or the original relatively small sizes became bigger or narrow size distribution became broader.

[5] = Table 20, nonsymmetric IAJDs and MC3-Luc-mRNA

| Compound | Luminescence [1] | In vivo activity (total flux, p/s) ([2]; Table 19, nonsymmetric IAJDs) | Organs with luminescence: lung [3] | In vivo activity (total flux, p/s) [2, 5] | Ranking of stability ([4]; after 21 days at 5° C.) | also measured |
| --- | --- | --- | --- | --- | --- | --- |
| CCCCCCCCCCCCCCCOc1cc(COC(=O)CCCN2CCN(CCO)CC2)cc(OCCCCCCCCCCCCC)c1 [IAJD 146, 3-(Pentadecyloxy)-5-(tridecyloxy)benzyl 4-(4-(2-hydroxyethyl)piperazin-1-yl)butanoate] | 50,625 | 4.70 × 10^7 p/s | Lung (strong), | – | – | Ranking of stability ([4]; after 27 days at 5° C.): Excellent |
| CCCCCCCCCCCCCCCOc1cc(COC(=O)CCCN2CCN(C)CC2)cc(OCCCCCCCCCCCCCC)c1 [IAJD 147, 3-(Pentadecyloxy)-5-(tetradecyloxy)benzyl 4-(4-methylpiperazin-1-yl)butanoate] | 5,844 | 9.24 × 10^6 p/s | Lung (weak), | – | – | Ranking of stability ([4]; after 19 days at 5° C.): Excellent |
| CCCCCCCCCCCCCCCOc1cc(COC(=O)CCCN2CCN(CCO)CC2)cc(OCCCCCCCCCCCCCC)c1 [IAJD 148, 3-(Pentadecyloxy)-5-(tetradecyloxy)benzyl 4-(4-(2-hydroxyethyl)piperazin-1-yl)butanoate] | 139,420 | 6.33 × 10^7 p/s | Lung (weak), | – | – | Ranking of stability ([4]; after 19 days at 5° C.): Good |
| CCCCCCCCCCCCCCCCOc1cc(COC(=O)CCCN2CCN(C)CC2)cc(OCCCCCCCCCCCCCCC)c1 [IAJD 149, 3-(Hexadecyloxy)-5-(pentadecyloxy)benzyl 4-(4-methylpiperazin-1-yl)butanoate] | 149,935 | 2.26 × 10^7 p/s | Lung (weak), | – | – | Ranking of stability ([4]; after 19 days at 5° C.): Excellent |
| CCCCCCCCCCCCCCCCOc1cc(COC(=O)CCCN2CCN(CCO)CC2)cc(OCCCCCCCCCCCCCCC)c1 [IAJD 150, 3-(Hexadecyloxy)-5-(pentadecyloxy)benzyl 4-(4-(2-hydroxyethyl)piperazin-1-yl)butanoate] | 134,225 | 3.47 × 10^7 p/s | Lung (weak), | – | – | Ranking of stability ([4]; after 19 days at 5° C.): Excellent |
| CCCCCCCCCCCCCCCCCOc1cc(COC(=O)CCCN2CCN(C)CC2)cc(OCCCCCCCCCCCCCCC)c1 [IAJD 151, 3-(Heptadecyloxy)-5-(pentadecyloxy)benzyl 4-(4-methylpiperazin-1-yl)butanoate] | 9,310 | 3.12 × 10^7 p/s | Lung (weak), | – | – | Ranking of stability ([4]; after 35 days at 5° C.): Excellent |
| CCCCCCCCCCCCCCCCCCOc1cc(COC(=O)CCCN2CCN(C)CC2)cc(OCCCCCCCCCCCCCCC)c1 [IAJD 153, 3-(Octadecyloxy)-5-(pentadecyloxy)benzyl 4-(4-methylpiperazin-1-yl)butanoate] | 8,860 | 7.33 × 10^7 p/s | Lung (weak), | 7.33 × 10^7 p/s | – | Ranking of stability ([4]; after 35 days at 5° C.): Excellent |
| CCCCCCCCCCCCCCCCCCOc1cc(COC(=O)CCCN2CCN(CCO)CC2)cc(OCCCCCCCCCCCCCCC)c1 [IAJD 154, 3-(Octadecyloxy)-5-(pentadecyloxy)benzyl 4-(4-(2-hydroxyethyl)piperazin-1-yl)butanoate] | 17,871 | 2.39 × 10^7 p/s | Lung (weak), | 2.39 × 10^7 p/s | – | Ranking of stability ([4]; after 35 days at 5° C.): Excellent |
| CCCCCCCCCCCCCCCCCOc1cc(CNC(=O)c2cc(OCCOCCOCCOC(=O)CCCN3CCCCC3)c(OCCCOCOCCOCc3ccccc3)c(OCCOCCOCCOC(=O)CCCN3CCCCC3)c2)cc(OCCCCCCCCCCCCCCCCC)c1 [IAJD 159] | 24,055 | – | Lung (strong) | – | – | increase of activity, amide vs ester interconnecting group ([2]; transition from 158(11/17) (ester) to 159(11/17) (amide)): about 6 fold; Ranking of stability ([4]; after 11 days at 5° C.): Excellent |
| CCCCCCCCCCCCCOc1cc(COC(=O)CCCN2CCN(C)CC2)cc(OCC(CC)CCCC)c1 (centres unmarked) [IAJD 161, 3-((2-Ethylhexyl)oxy)-5-(tridecyloxy)benzyl 4-(4-methylpiperazin-1-yl)butanoate] | 128 | 8.48 × 10^7 p/s | Lung (weak), | – | Excellent | – |
| CCCCCCCCCCCCCOc1cc(COC(=O)CCCN2CCN(CCO)CC2)cc(OCC(CC)CCCC)c1 (centres unmarked) [IAJD 162, 3-((2-Ethylhexyl)oxy)-5-(tridecyloxy)benzyl 4-(4-(2-hydroxyethyl)piperazin-1-yl)butanoate] | 222,235 | 2.03 × 10^8 p/s | Lung (weak), | 2.03 × 10^8 p/s | Excellent | – |
| CCCCCCCCCCCCCCOc1cc(COC(=O)CCCN2CCN(C)CC2)cc(OCCCCCCCCCCCCC)c1 [IAJD 171, 3-(Tetradecyloxy)-5-(tridecyloxy)benzyl 4-(4-methylpiperazin-1-yl)butanoate] | 1,436 | 7.68 × 10^7 p/s | Lung (weak), | 7.68 × 10^7 p/s | Excellent | – |
| CCCCCCCCCCCCCCOc1cc(COC(=O)CCCN2CCN(CCO)CC2)cc(OCCCCCCCCCCCCC)c1 [IAJD 172, 3-(Tetradecyloxy)-5-(tridecyloxy)benzyl 4-(4-(2-hydroxyethyl)piperazin-1-yl)butanoate] | 166,377 | 6.82 × 10^7 p/s | Lung (weak), | – | – | Ranking of stability ([4]; after 14 days at 5° C.): Excellent |
| CCCCCCCCCCCCCCCCOc1cc(COC(=O)CCCN2CCN(C)CC2)cc(OCCCCCCCCCCCCC)c1 [IAJD 173, 3-(Hexadecyloxy)-5-(tridecyloxy)benzyl 4-(4-methylpiperazin-1-yl)butanoate] | 2,302 | 1.23 × 10^8 p/s | Lung (weak), | 1.23 × 10^8 p/s | Good | – |
| CCCCCCCCCCCCCCCCCCOc1cc(COC(=O)CCCN2CCN(C)CC2)cc(OCCCCCCCCCCCCC)c1 [IAJD 177, 3-(Octadecyloxy)-5-(tridecyloxy)benzyl 4-(4-methylpiperazin-1-yl)butanoate] | 4,343 | 9.18 × 10^7 p/s | Lung (weak), | 9.18 × 10^7 p/s | Excellent | – |
| CCCCCCCCCCCCCCCCCCOc1cc(COC(=O)CCCN2CCN(CCO)CC2)cc(OCCCCCCCCCCCCC)c1 [IAJD 178, 3-(Octadecyloxy)-5-(tridecyloxy)benzyl 4-(4-(2-hydroxyethyl)piperazin-1-yl)butanoate] | 235,419 | 4.05 × 10^8 p/s | Lung (weak), | 4.05 × 10^8 p/s | Excellent | total flux luminescence ([2]; mice, in vivo Luc-mRNA transfection): 4.05×10^8 p/s; in vivo activity, times higher than symmetric IAJD with the same headgroup ([2]; nonsymmetric vs symmetric alkyl chains (178 vs 99 (18/18))): 90.2 times; in vivo activity, times lower than of MC3 ([2]; total flux luminescence vs MC3): 4.2 times |
